Reference: patent US20240382434A1, “CARYOPHYLLENE-CONTAINING COMPOSITION” (SUNSHO PHARMACEUTICAL CO., LTD., priority 2021, published 2024)

What was measured:
Type in all cases: physicochemical
Details in all cases: conclusion in words
[1] = Experiment 3: Freezing resistance
Method: The amounts (parts by mass (pbm)) of the ingredients shown in the table below were mixed and placed into 20-mL lidded glass bottles to dissolve into solutions. The lidded glass bottles were placed into a water bath set at 25° C. After the temperature reached 25° C., the bottles were kept warm for 30 minutes to adjust the temperature.
Then, the glass bottles were placed in a freezer (at approximately −20° C.). The freezer was opened every 30 minutes to visually check if each solution had solidified. The time point when the solution was partially solidified and the time point when the solution was completely solidified were recorded. Check was made every 30 minutes until 360 minutes had passed, and then 3 days later, visual check was made again. When the menthol had not solidified after 3 days, the result was recorded as non-solidified.

[2] = Experiment 1: Volatilization of menthol
Method: The prepared compositions were placed in petri dishes and used as test samples.
Each test sample was allowed to volatilize without being covered under room temperature conditions for a certain period of time. The mass of each test sample was measured at a given time point. The volatilization amount and rate were calculated from the measured values.
Similarly, the volatilization amount and rate of a test sample using only caryophyllene were also calculated.
The time constant was calculated from the measurement results [by subtracting the volatilization amount of caryophyllene (theoretical value)].
In the table, the unit of the time constant is hour (h) (the same applies hereinafter).

[3] = Experiment 2: Dissolution of menthol
Method: The amounts (parts by mass (pbm)) of the ingredients shown in the table below were placed into 20-mL lidded glass bottles.
The lidded glass bottles were placed into a water bath set at 25° C. After the temperature reached 25° C., the bottles were kept warm for 30 minutes to adjust the temperature.
The temperature was continuously kept at 25° C. With every 20 minutes, the lidded glass bottles were inverted for mixing and checked visually to see if the menthol had dissolved. The time to complete dissolution was recorded as the time required for the menthol to dissolve. Check was made every 20 minutes until 360 minutes had passed, and then 3 days later, visual check was made again. When the menthol had not dissolved after 3 days, the result was recorded as non-dissolved.

## Caryophyllene
[1]
  Effect on freezing resistance of the MCT: improved freezing resistance of the MCT
[2]
  Effect on volatilization of menthol: enhances volatilization of menthol
[3]
  Effect on dissolution of menthol: enhanced dissolution of menthol
